Values joined by “and” are separate entries in the source; they are usually repeats but may differ in a detail not shown here. Equal entries are not always repeated.
biological target: human RIP1 kinase domain (2-375) (Homo sapiens (Human), UniProt Q13546); test: biochemical; format: biochemical; settings: Table 1; apparent Ki (Morrison tight-binding fit); 50 nM RIP1 kinase domain, 50 uM ATP, 2 hours incubation; read-out: RIP1 Ki
Procedure, shortened: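 Ki^app comes from Morrison tight-binding fits of fractional activity versus compound concentration. Activity was read as ADP production, via tracer displacement lowering fluorescence polarization (633 nm laser). Conditions: 2 h, 50 nM insect-cell-expressed enzyme, 50 uM ATP, 30 mM MgCl2, 1 mM DTT, 0.5% DMSO, pH 7.5 Hepes.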

Chain of human RIP1 kinase domain (2-375) (Q13546 2-375): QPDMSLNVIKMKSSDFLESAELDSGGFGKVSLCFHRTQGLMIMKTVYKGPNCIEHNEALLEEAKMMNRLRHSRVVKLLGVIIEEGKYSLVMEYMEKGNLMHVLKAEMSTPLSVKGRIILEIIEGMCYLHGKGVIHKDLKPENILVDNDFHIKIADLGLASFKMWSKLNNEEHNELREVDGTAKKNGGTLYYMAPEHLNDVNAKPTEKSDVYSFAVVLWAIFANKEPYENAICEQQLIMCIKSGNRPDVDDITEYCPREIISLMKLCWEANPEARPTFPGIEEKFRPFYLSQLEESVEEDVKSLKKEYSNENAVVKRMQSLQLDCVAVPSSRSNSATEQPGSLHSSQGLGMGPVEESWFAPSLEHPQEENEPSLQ

SMILES | Ki
CC1CCc2n[nH]c(C(=O)N[C@H]3CCc4cc(Cl)ccc4NC3=O)c2C1 (stereo partly drawn) [Example 46, N-((S)-7-chloro-2-oxo-2,3,4,5-tetrahydro-1H-benzo[b]azepin-3-yl)-5-methyl-4,5,6,7-tetrahydro-2H-indazole-3-carboxamide] | 135 nM
CN1C(=O)[C@@H](NC(=O)c2ncn3ccc(C(F)(F)F)cc23)CCn2nccc21 [Example 75, (S)-N-(4-methyl-5-oxo-5,6,7,8-tetrahydro-4H-pyrazolo[1,5-a][1,3]diazepin-6-yl)-7-(trifluoromethyl)imidazo[1,5-a]pyridine-1-carboxamide] | 231 nM
O=C(N[C@H]1COc2[nH]ncc2NC1=O)c1cn(Cc2ccc(F)c(F)c2)cn1 [Example 17, 1-[(3,4-difluorophenyl)methyl]-N-[(6S)-5-oxo-1,4,6,7-tetrahydropyrazolo[3,4-b][1,4]oxazepin-6-yl]imidazole-4-carboxamide] | > 10000 nM
CC(C)(C)C1CCc2[nH]nc(C(=O)N[C@H]3CCc4cc(Cl)ccc4NC3=O)c2C1 (stereo partly drawn) [Example 47, 5-(tert-butyl)-N-((S)-7-chloro-2-oxo-2,3,4,5-tetrahydro-1H-benzo[b]azepin-3-yl)-4,5,6,7-tetrahydro-1H-indazole-3-carboxamide] | 350 nM
C[C@@H]1CCc2noc(C(=O)N[C@H]3COc4ccccc4N(C)C3=O)c2C1 [Example 71, (R)-5-methyl-N-((S)-5-methyl-4-oxo-2,3,4,5-tetrahydrobenzo[b][1,4]oxazepin-3-yl)-4,5,6,7-tetrahydrobenzo[c]isoxazole-3-carboxamide] | 19.2 nM

same assay, conditions: Table 5; apparent Ki (Morrison tight-binding fit); 50 nM RIP1 kinase domain, 50 uM ATP, 2 hours incubation; read-out: Ki

Ki | SMILES
618 nM | Cc1cc2n(n1)CC[C@H](NC(=O)c1cc3c(Br)cccc3cn1)C(=O)N2C (racemic) [Example 701, 5-bromo-N-[rac-(6S)-2,4-dimethyl-5-oxo-7,8-dihydro-6H-pyrazolo[1,5-a][1,3]diazepin-6-yl]isoquinoline-3-carboxamide]
34 nM | CN1C(=O)[C@@H](NC(=O)c2cc3n(n2)CCC[C@@H]3c2ccccc2F)COc2ccccc21 [Example 709, (4R)-4-(2-fluorophenyl)-N-[(3S)-5-methyl-4-oxo-2,3-dihydro-1,5-benzoxazepin-3-yl]-4,5,6,7-tetrahydropyrazolo[1,5-a]pyridine-2-carboxamide]
24 nM | CN1C(=O)[C@@H](NC(=O)c2ncn(Cc3ccccc3)n2)CCn2nc(C3CN(C(=O)OC(C)(C)C)C3)cc21 [Example 759]
27 nM | CCn1cc(-c2cc3n(n2)CCC(NC(=O)c2ncn(Cc4ccccc4)n2)C(=O)N3C)cn1 (single isomer, unassigned) [Example 698, 1-benzyl-N-[2-(1-ethylpyrazol-4-yl)-4-methyl-5-oxo-7,8-dihydro-6H-pyrazolo[1,5-a][1,3]diazepin-6-yl]-1,2,4-triazole-3-carboxamide]
86 nM | CCOCCc1cc2n(n1)CC[C@H](NC(=O)c1ncn(Cc3ccccc3)n1)C(=O)N2C [Example 758]

same assay, conditions: human RIP1 kinase domain (2-375), 50 uM ATP, 2 hours incubation, Transcreener ADP assay; read-out: RIP1 Ki

Ki | SMILES
127 nM | CN1C(=O)C(NC(=O)c2nnc(Cc3ccccc3)[nH]2)CCn2nc3c(c21)CCCC3 (stereo not shown) [Example 133, 5-benzyl-N-(1-methyl-2-oxo-2,3,4,5,8,9,10,11-octahydro-1H-[1,3]diazepino[1,2-b]indazol-3-yl)-4H-1,2,4-triazole-3-carboxamide]
65.2 nM | CN1C(=O)C(NC(=O)c2ncn(Cc3ccccc3)n2)CCn2nc3ccccc3c21 (stereo not shown) [Example 110, 1-benzyl-N-(1-methyl-2-oxo-2,3,4,5-tetrahydro-1H-[1,3]diazepino[1,2-b]indazol-3-yl)-1H-1,2,4-triazole-3-carboxamide]
51.5 nM | CN1C(=O)[C@@H](NC(=O)c2n[nH]c3ccc(Cl)nc23)COc2ccccc21 [Example 143, 5-chloro-N-[(3S)-5-methyl-4-oxo-2,3-dihydro-1,5-benzoxazepin-3-yl]-1H-pyrazolo[4,3-b]pyridine-3-carboxamide]
126 nM | CN1C(=O)C(NC(=O)c2ncn(Cc3ccccc3)n2)CCn2c1nc1ccccc12 (stereo not shown) [Example 111, 1-benzyl-N-(1-methyl-2-oxo-2,3,4,5-tetrahydro-1H-benzo[4,5]imidazo[1,2-a][1,3]diazepin-3-yl)-1H-1,2,4-triazole-3-carboxamide]
106 nM | Cc1ncn2c1N(C)C(=O)C(NC(=O)c1ncn(Cc3ccccc3)n1)CC2 (stereo not shown) [Example 215, 1-benzyl-N-(1,9-dimethyl-2-oxo-2,3,4,5-tetrahydro-1H-imidazo[1,5-a][1,3]diazepin-3-yl)-1H-1,2,4-triazole-3-carboxamide]
212 nM | CN1C(=O)C(NC(=O)c2nnc(Cc3ccccc3)[nH]2)CCn2ccnc21 (stereo not shown) [Example 175, 5-benzyl-N-(9-methyl-8-oxo-6,7,8,9-tetrahydro-5H-imidazo[1,2-a][1,3]diazepin-7-yl)-4H-1,2,4-triazole-3-carboxamide]
> 10000 nM | CN1C(=O)[C@@H](NC(=O)c2ncn(Cc3ccccc3)n2)CC[C@H]2[C@@H]1C2(F)F (single isomer, unassigned) [Example 130]

same assay, conditions: human RIP1 kinase domain (2-375), Transcreener ADP assay, 50 uM ATP, 2 hours incubation; read-out: RIP1 Ki

Ki | SMILES
618 nM | CCC1(C)OCc2cnc(C(=O)N[C@H]3CCn4nc(C)cc4N(C)C3=O)nc21 (stereo partly drawn) [Example 326, N—((S)-2,4-dimethyl-5-oxo-5,6,7,8-tetrahydro-4H-pyrazolo[1,5-a][1,3]diazepin-6-yl)-7-ethyl-7-methyl-5,7-dihydrofuro[3,4-d]pyrimidine-2-carboxamide]
2000 nM | CC[C@@]1(C)OCc2cnc(C(=O)NC3CCn4ccnc4N(C)C3=O)cc21 (stereo partly drawn) [Example 233, (1R)-1-ethyl-1-methyl-N-(9-methyl-8-oxo-6,7,8,9-tetrahydro-5H-imidazo [1,2-a][1,3]diazepin-7-yl)-1,3-dihydrofuro[3,4-c]pyridine-6-carboxamide]
82.9 nM | CN1C(=O)C(NC(=O)c2ncn(Cc3ccc(F)cc3)n2)CCn2nc(C3CC3)cc21 (stereo not shown) [Example 257, N-(2-cyclopropyl-4-methyl-5-oxo-5,6,7,8-tetrahydro-4H-pyrazolo[1,5-a][1,3]diazepin-6-yl)-1-(4-fluorobenzyl)-1H-1,2,4-triazole-3-carboxamide]

same assay, conditions: tight-binding apparent inhibition constant; human RIP1 kinase domain (2-375) 50 nM, 50 uM ATP, 2 hours; read-out: Ki

Ki | SMILES
79 nM | CN1C(=O)[C@@H](NC(=O)c2ncn(Cc3ccccc3C#N)n2)CCn2nc(C3CC3)cc21 [Example 593]
7.6 nM and 43 nM | CN1C(=O)[C@@H](NC(=O)c2ncn(Cc3ccccc3Cl)n2)CCn2nccc21 [Example 582, 1-[(2-chlorophenyl)methyl]-N-(6S)-4-methyl-5-oxo-7,8-dihydro-6H-pyrazolo[1,5-a][1,3]diazepin-6-yl-1,2,4-triazole-3-carboxamide]
374 nM | CCC1CCCc2nc(C(=O)N[C@H]3CCn4nccc4N(C)C3=O)nn21 (stereo partly drawn) [Example 379, 5-ethyl-N—((S)-4-methyl-5-oxo-5,6,7,8-tetrahydro-4H-pyrazolo[1,5-a][1,3]diazepin-6-yl)-5,6,7,8-tetrahydro-[1,2,4]triazolo[1,5-a]pyridine-2-carboxamide]
7 nM | CN1C(=O)[C@@H](NC(=O)c2ncn(Cc3ccccc3)n2)CCn2nc(CC3CC3)cc21 [Example 459, (S)-1-benzyl-N-(2-(cyclopropylmethyl)-4-methyl-5-oxo-5,6,7,8-tetrahydro-4H-pyrazolo[1,5-a][1,3]diazepin-6-yl)-1H-1,2,4-triazole-3-carboxamide]
444 nM | COC1CN(Cc2cc3n(n2)CCC(NC(=O)c2ncn(Cc4ccccc4)n2)C(=O)N3C)C1 (single isomer, unassigned) [Example 451, 1-benzyl-N-(2-((3-methoxyazetidin-1-yl)methyl)-4-methyl-5-oxo-5,6,7,8-tetrahydro-4H-pyrazolo[1,5-a][1,3]diazepin-6-yl)-1H-1,2,4-triazole-3-carboxamide]

Reference: patent US10988459B2 (priority 2015, dated 2021)
